In US7524490B2, “Clusterin-mediated inhibition of apoptosis via stromal bone marrow cell delivery to a cardiac site” (Board of Regents of the University of Texas System, priority 2004, dated 2009):

Columns and labels:
[1] = test system: vascular smooth muscle cells; assay: Oxysterol-induced internucleosomal DNA fragmentation and apoptosis in vascular smooth muscle cells; assay type: cell-based
Excerpt: FIG. 11 is an ethedium bromide-stained agarose gel loaded with DNA samples extracted from clusterin-transfected or non-transfected vascular smooth muscle cells.
Detection of apoptotic cells. Determination of apoptosis needs a combination of techniques in morphology and biochemistry. Apoptosis was detected using the following six techniques: 1) Light microscopy; 2) Fluorescent confocal scanning or non-confocal microscopy, 3). In situ labeling of DNA 3′ ends (TUNEL technique), 4) Electron microscopy, 5) DNA agarose gel electrophoresis, and 6) Flow cytometry. These techniques are describe more particularly as follows: 1) Light microscopy was applied routinely to analyze morphological changes of vascular cells. 2) Fluorescent confocal scanning or non-confocal microscopy was used to characterize cytoskeletal and nuclear alterations after immunofluorescent staining. DAPI or Hoechst dye was used for nuclear morphology under UV excitation. 3). […] The signal of TdT-mediated dUTP nick end labeling (TUNEL) was detected by an anti-digoxigenin antibody conjugated with peroxidase, a reporter enzyme which catalytically generates a brown color product from the chromogenic substrate diaminobenzidine. […] DNA was precipitated in ethanol, and analyzed for fragmentation by 2% agarose gel electrophoresis with ethidium bromide. […] In this study, cell proliferation and apoptosis were analyzed by flow cytometry. […]

[2] = test system: KG-293 cells; assay: TNF-α-induced apoptosis in KG-293 cells with tetracycline-induced intracellular clusterin; assay type: cell-based, human
Excerpt: Transfection with clusterin cDNA. Initially a plasmid was constructed that contains a truncated form of clusterin cDNA with deletion of the sequence responsible for cross-membrane transport. Transfection of human embryonic 293 cell line with this plasmid leads to intracellular overexpression of a non-secreted form of clusterin. The clusterin gene is under control of a CMV promoter with tetracycline-sensitive elements. […] This plasmid will be used to deliver the truncated clusterin gene into stem cells. The cells will be selected using G418 as the plasmid contains a neomycin-resistant gene.
A plasmid pKS7 that contains a truncated clusterin cDNA with deletion of the transmembrane domain and a neomycin-resistant gene was constructed. The truncated clusterin gene was under regulation by a CMV promoter with tetracycline-responding elements. Stable transfection of the human embryonic kidney cell line T-293 with pKS7 generates a stable cell line (KG-293) with clusterin overexpressed. As shown by Western blot, under stimulation with tetracycline (1 μg/ml) for 24 hours, KG-293 cells but not their precursors, T-293 cells, produced an intracellular form of clusterin at much higher levels (FIG. 7A). […] KG-293 cells overexpressing the intracellular form of clusterin also underwent dramatic alterations in morphology and proliferation. […]

[3] = test system: stem cells; assay: Clusterin pretreatment of stem cells in serum-free conditioned medium; assay type: cell-based, mouse; details: 20-30 μg/ml clusterin, 24 hours, preliminary data
Protocol: Stem cell culture and treatment with oxysterols and cytokines. Mouse stem cells were used in this in vitro study. Two groups of proapoptotic agents were used to induce apoptosis of stem cells: oxysterols and cytokines. In group 1, stem cells were treated with 7-ketocholesterol (7-KC) and 25-OH-cholesterol (25-OH—C), two oxysterols known to exist in abundantly in atherosclerotic lesions and to induce apoptosis in cardiovascular cells. Free cholesterol was used as controls. In group 2, stem cells were incubated with a combination of tumor necrosis factor (TNF)-α and interferon (IFN)-γ, two cytokines previously shown to induce apoptosis of stem cells. In addition, to determine whether the Fas death-signaling pathway is involved in apoptosis of stem cells, stem cells were treated with recombinant Fas ligand in the presence of IFN-γ.
Clusterin treatment. In order to determine whether clusterin prevents apoptosis of stem cells, stem cells were pretreated with clusterin purified from serum or synthesized by use of recombinant technology. Stem cells were cultured in a serum-free, conditioned medium supplemented with 20-30 μg/ml clusterin for 24 hours. The preliminary data indicated no apoptosis under the culture condition with clusterin. […] Cells were analyzed for apoptosis using the following methods after treatment. […]

[4] = test system: aldehyde dehydrogenase-1 (ALDH-1); assay: Induction of aldehyde dehydrogenase expression in smooth muscle cells (immunoblot); assay type: cell-based, murine; details: recombinant human clusterin 0, 5, 25, 50 μg/ml; concentration-dependent
Protocol: FIG. 13 is an immunoblot showing induction of aldehyde dehydrogenase-1 (ALDH-1) in murine vascular smooth muscle cells by treatment with recombinant human clusterin (apoJ) at different concentrations (lane 1, 0 μg/ml; lane 2, 5 μg/ml; lane 3, 25 μg/ml; lane 4, 50 μg/ml).
Aldehyde dehydrogenase expression and vitamin A metabolism were investigated to determine whether clusterin exerts its protective effect through upregulation of genes involved in cellular detoxification. Aldehyde dehydrogenases (ALDHs) are a group of intracellular enzymes that mediate NAD-coupled oxidation of aldehydes to carboxylic acids. ALDH is probably most widely known for its role in clearance of acetaldehyde from beverage alcohol by conversion to acetic acid. This enzymes is also involved in retinol metabolism and mediates vitamin A function. Members of the ALDH family are diversed; some have broad substrate specificities (ALDH1 and ALDH2) and other ALDHs are tailored to specific reactions of intermediary metabolism (e.g., methyl malonic semialdehyde dehydrogenase in branched-chain amino acid metabolism). ALDH1 is primarily found in the liver and in adult stem cells including hematopoietic stem cells. […]

[5] = test system: murine cardiac stem cells; assay: Apoptosis of cardiac stem cells induced by serum starvation, with or without clusterin; assay type: cell-based, mouse; details: clusterin-containing DMEM medium, many cells died without clusterin
Protocol: Treatment of stem cells in culture. An in vitro system was first employed to examine the protective effects of clusterin on stem cells. Stem cells were treated with clusterin at different concentrations in the cultures with or without proinflammatory cytokines or T lymphocytes pre-activated by mitogens. After 2-4 days of stimulation, cell survival and apoptosis were examined using a combination of techniques including flow cytometry, fluorescent microscopy, and radioactive isotope labeling, as described below. Control experiments were set up using other types of proteins, such as bovine albumin.
Detection of apoptotic cells. Determination of apoptosis needs a combination of techniques in morphology and biochemistry. Apoptosis was detected using the following six techniques: 1) Light microscopy; 2) Fluorescent confocal scanning or non-confocal microscopy, 3). […] The signal of TdT-mediated dUTP nick end labeling (TUNEL) was detected by an anti-digoxigenin antibody conjugated with peroxidase, a reporter enzyme which catalytically generates a brown color product from the chromogenic substrate diaminobenzidine. […] DNA was precipitated in ethanol, and analyzed for fragmentation by 2% agarose gel electrophoresis with ethidium bromide. […] In this study, cell proliferation and apoptosis were analyzed by flow cytometry. […]

[6] = Dot blotting of clusterin binding to filter-coated lipids; set-up: species or system mouse; details: 10 μg/well serum proteins from TG and WT mice, 30 min, room temperature; anti-clusterin detection
Protocol: As a component of HDL, clusterin helps transport cholesterol crossing the cellular membrane. In atherosclerotic lesions, cholesterol-derived oxysterols accumulate and exert apoptotic effects on vascular cells. Usually, the cytotoxicity of oxysterols including 7-ketocholesterol is much greater than that of free cholesterol. […] Free cholesterol and 7-ketocholesterol dissolved in ethanol were loaded to a filter in a 96-well dot blotting device. 10 μg/well proteins from three TG and WT serum samples were incubated in the wells for 30 min at room temperate. After washing with PBS, the filter was incubated with anti-clusterin antibody (1:200), and then anti-goat IgG conjugated with peroxidase. The dot blotting was developed using an ECL kit. Furthermore, an increased binding activity to the oxysterol in the serum from clusterin transgenic mice, compared to these in wild type mouse serum (FIG. 10), was detected. Thus, clusterin appears to have a higher affinity to some oxidized cholesterol derivatives.

For `CC(C)CCC[C@@H](C)[C@H]1CC[C@H]2[C@@H]3C(=O)C=C4C[C@@H](O)CC[C@]4(C)[C@H]3CC[C@]12C` [7-ketocholesterol, reference compound], the “induction of apoptosis of vascular smooth muscle cells (internucleosomal DNA fragmentation)” value ([1]; exposure to oxysterol) was “can trigger apoptosis”.
For TNF-α [reference compound], the “induction of apoptosis in control KG-293 cells” value ([2]; TNF-α 10 ng/ml for 24 and 48 hours, cells not exposed to tetracycline) was “markedly induced apoptosis”.
With “clusterin: sulfated, heterodimeric glycoprotein containing two 40 kDa chains joined by a five disulfide bond motif; native or recombinant” the “apoptosis of stem cells under culture condition with clusterin” value [3] was “no apoptosis”, the “expression of ALDH in smooth muscle cells” value [4] was “significantly induced expression of ALDH” and the “apoptosis of cardiac stem cells (morphology, acridine orange/ethidium bromide staining)” value [5] was “no sign of apoptosis”. For the same compound, the “effect on the pro-apoptotic effect of TNF-α” value ([2]; KG-293 cells with intracellular overexpression of truncated clusterin (pKS7, tetracycline 1 μg/ml)) was “significantly attenuated”, the “effect on oxysterol-induced DNA fragmentation and apoptosis in vascular cells” value ([1]; overexpression of clusterin by cDNA transfection) was “markedly reduces the DNA fragmentation and apoptosis” and the “binding to 7-ketocholesterol versus free cholesterol (dot blot intensity)” value [6] was “much higher intensities than free cholesterol”.
